Results: patent US20160318928A1, “TRICYCLIC COMPOUNDS AS ANTICANCER AGENTS” (BRISTOL-MYERS SQUIBB COMPANY, priority 2013, published 2016)

How the values were obtained:
[1] = system: H187 Human Small Cell Carcinoma; assay: Human tumor xenograft model in mice, H187; format: in vivo
Source text: (§1) Human Tumor Xenograft Models in Mice
(§2) All rodents were obtained from Jackson Laboratory. (Bar Harbor, Me.), and maintained in an ammonia-free environment in a defined and pathogen-free colony. All mice were quarantined approximately 1 week prior to their use for tumor propagation and drug efficacy testing. Mice were fed food and water ad libitum. The animal care program of Bristol-Myers Squibb Pharmaceutical Research Institute is fully accredited by the American Association for Accreditation of Laboratory Animal Care (AAALAC). All experiments were performed in accordance with Bristol-Myers Squibb (BMS) animal test methods and guidelines.
(§3) Tumor xenografts were grown and maintained subcutaneously (SC) in NSG (NOD scid IL2 receptor gamma chain knockout) mice (Jackson Lab). Tumors were propagated as subcutaneous transplants using tumor fragments obtained from donor mice.
(§4) Preclinical Chemotherapy Trials
(§5) The required numbers of animals needed to detect a meaningful response were pooled at the start of the experiment and each was given bilateral subcutaneous implants of two tumor fragments (˜20 mg) with a 13-gauge trocar. Tumors were allowed to grow to the pre-determined size window (tumors outside the range were excluded) and animals were evenly distributed to various treatment and control groups. There were typically 6-8 mice per treatment and control groups, consisting of 10-12 tumors. Treatment of each animal was based on individual body weight. Treated animals were checked daily for treatment related toxicity/mortality. Each group of animals was weighed before the initiation of treatment (WO and then again following the last treatment dose (Wt2). The difference in body weight (Wt2-Wt1) provides a measure of treatment-related toxicity.
(§6) Tumor response was determined by measurement of tumors with a caliper twice a week, until the tumors reached a predetermined “target” size of 0.5 gm or 1 gm depending on the tumor type. Tumor weights (mg) were estimated from the formula:
(§7) Tumor weight=(length×width^2)÷2
(§8) Tumor response criteria are expressed in terms of tumor growth inhibition (% TGI). Tumor growth delay is defined as the difference in time (days) required for the treated tumors (T) to reach a predetermined target size compared to those of the control group (C). For this purpose, the tumor weight of a group is expressed as medium tumor weight (MTW).
(§9) Tumor growth inhibition is calculated as follows:
(§10) where, Ct=Median control tumor size at end of treatment C0=Median control tumor size at treatment initiation Tt=Median tumor size of treated group at end of treatment T0=Median tumor size of treated group at treatment initiation
(§11) Tumor response was also expressed in terms of tumor growth delay and expressed as log cell kill (LCK value), defined as the difference in time (days) required for the treated tumors (T) to reach a predetermined target size compared to those of the control group (C).
(§12) Whenever possible, antitumor activity was determined at a range of dose levels up to the maximum tolerated dose (MTD) which is defined as the dose level immediately […] which excessive toxicity (i.e. more than one death) occurred. When death occurred, the day of death was recorded. Treated mice dying prior to having their tumors reach target size were considered to have died from drug toxicity. No control mice died bearing tumors less than target size. Treatment groups with more than one death caused by drug toxicity were considered to have had excessively toxic treatments and their data were not included in the evaluation of a compound's antitumor efficacy.
(§13) For administration of BET inhibitors to rodents, compounds were dissolved in […]/10% TPGS/10% Ethanol. BET inhibitors were typically administered orally on a schedule of QDx7 or QDx10 (5 day-on-2 day-off), although other schedules had also been evaluated and shown to be efficacious

[2] = target: BRD4 (Homo sapiens, UniProt O60885); assay: Time resolved fluorescence resonance energy transfer (TR-FRET) binding assay, BRD4 bromodomain; settings: one of the FRET assays described
[3] = system: JJN3R multiple myeloma cell line; assay: Human tumor xenograft model in mice, JJN3R; format: in vivo; settings: Mus musculus, JJN-3R, po, QDx7, read-out: % TGI
Source text: as §1, §2, §3, §4, §5, §6, §7, §8, §9, §10, §11, §12, §13

Cc1noc(C)c1-c1cnc2c3ccc(C(C)(C)O)cc3n(C(c3ccccc3)C3CCOCC3)c2c1 (single isomer, unassigned) [Example 1, 2-[3-(Dimethyl-1,2-oxazol-4-yl)-5-[oxan-4-yl(phenyl)methyl]-5H-pyrido[3,2-b]indol-7-yl]propan-2-ol]
% TGI ([1]; 5 mg/kg, 2QDx7): 88.0% | LCK ([1]; 5 mg/kg, 2QDx7): 1.0 | % TGI ([1]; 15 mg/kg, 2QDx7): 104.0% | LCK ([1]; 15 mg/kg, 2QDx7): 1.2

Cc1nnn(C)c1-c1cnc2c3ccc(C(C)(C)O)cc3n([C@H](c3ccccc3)C3CCOCC3)c2c1 (single isomer, unassigned) [Example 54]
% TGI ([1]; 5 mg/kg, QDx7): 100.0% | LCK ([1]; 5 mg/kg, QDx7): 0.7 | % TGI ([1]; 10 mg/kg, QDx7): 102.0% | LCK ([1]; 10 mg/kg, QDx7): 0.9

[2H]C([2H])([2H])c1nnn(C)c1-c1cnc2c3ccc(C(C)(C)O)cc3n(C(c3ccc(F)cc3)C3CCOCC3)c2c1 (stereo not drawn) [Example 267]
IC50 [2]: < 5 nM | inhibition in vivo at 1 mg/kg [3]: 10% | inhibition in vivo at 4 mg/kg [3]: 67%

[2H]C([2H])([2H])c1nnn(C)c1-c1cnc2c3cc(F)c(C(C)(C)O)cc3n([C@H](c3ccccc3)C3CCOCC3)c2c1 [Example 279, 2-{8-Fluoro-3-[4-(^2H3)methyl-1-methyl-1H-1,2,3-triazol-5-yl]-5-[(S)-oxan-4-yl(phenyl)methyl]-5H-pyrido[3,2-b]indol-7-yl}propan-2-ol]
inhibition in vivo at 1 mg/kg [3]: 88% | inhibition in vivo at 4 mg/kg [3]: 110%

[2H]C([2H])([2H])c1nnn(C)c1-c1cnc2c3ccc([C@@](C)(O)C4CC4)c(F)c3n([C@H](c3ccccc3)C3CCOCC3)c2c1 [Example 433, (1 S)-1-cyclopropyl-1-{6-fluoro-3-[4-(^2H3)methyl-1-methyl-1H-1,2,3-triazol-5-yl]-5-[(S)-oxan-4-yl(phenyl)methyl]-5H-pyrido[3,2-b]indol-7-yl}ethan-1-ol]
inhibition in vivo at 1 mg/kg [3]: 54%

[2H]C([2H])([2H])c1nnn(C)c1-c1cnc2c3ccc([C@](C)(O)C4CC4)c(F)c3n([C@H](c3ccccc3)C3CCOCC3)c2c1 [Example 434, (1R)-1-cyclopropyl-1-{6-fluoro-3-[4-(^2H3)methyl-1-methyl-1H-1,2,3-triazol-5-yl]-5-[(5)-oxan-4-yl(phenyl)methyl]-5H-pyrido[3,2-b]indol-7-yl}ethan-1-ol]
inhibition in vivo at 1 mg/kg [3]: 82%
